Reference: patent US20060198904A1, “Methods for inhibiting allergic inflammation and other responses initiated by pollens, molds, and other non-animal derived allergens” (priority 2002, published 2006)
Like-named read-outs stand apart in the source and are kept apart here.

Columns and labels:
[1] = system: lung-(NCI-H292) and kidney-(MDCK) derived epithelial cells; assay: Intracellular ROS (H2DCF-DA) in other epithelial cells; type: cell-based; conditions: pre-treatment of epithelial cells, NAC 1 mM, FIG. 2B
Description: Cell Lines. Cells were obtained from the ATCC (A549, NCI-H292 and MDCK), or Cambrex Bio Science (Walkersville, Md.) (NHBE). Cells were maintained in humidified CO2 (5%) incubator and medium as recommended by the suppliers. Measurements of Reactive Oxygen Species. Epithelial cells (A549, NCI-H292, NHBE, and MDCK) were “loaded” with 50 μM H2DCF-DA (Molecular Probes, Eugene, Oreg.) at 37° C. for 15 minutes. After washing out excess probe, cells were treated with various allergenic extracts with or without NADPH (100 μM), NAC (1 mM), or NADPH oxidase inhibitors: quinacrine (500 μM) and diphenylene iodonium (100 μM). The change in fluorescence intensity was assessed in a FLx800 micro plate reader (Bio-Tek Instruments, Winooski, Vt.), or by flow cytometry (FACScan, Becton Dickinson, Franklin Lakes, N.J.) at 488 nm excitation and 530 nm emission. Each data point represents the mean fluorescence from three or more independent experiments, and is expressed ±s.e.m.

NADPH oxidase = assay: NBT assay (reduction of NBT to formazan); type: biochemical, ragweed (Ambrosia artemisiifolia)
Description: NBT Assay. […]. Mixtures were then incubated for 15 min at 37° C., and the sedimented formazan was dissolved in methanol. The absorbance was determined at 530 nm in a spectrophotometer (DU 530, Beckman Instruments, Fullerton, Calif.).

[2] = system: normal human bronchial epithelial (NHBE) cells; assay: Intracellular ROS (H2DCF-DA) in cultured NHBE cells; type: cell-based; conditions: quinacrine 500 μM, diphenylene iodonium 100 μM, FIG. 2A
Description: Cell Lines. Cells were obtained from the ATCC (A549, NCI-H292 and MDCK), or Cambrex Bio Science (Walkersville, Md.) (NHBE). Cells were maintained in humidified CO2 (5%) incubator and medium as recommended by the suppliers.
Measurements of Reactive Oxygen Species. Epithelial cells (A549, NCI-H292, NHBE, and MDCK) were “loaded” with 50 μM H2DCF-DA (Molecular Probes, Eugene, Oreg.) at 37° C. for 15 minutes. After washing out excess probe, cells were treated with various allergenic extracts with or without NADPH (100 μM), NAC (1 mM), or NADPH oxidase inhibitors: quinacrine (500 μM) and diphenylene iodonium (100 μM). The change in fluorescence intensity was assessed in a FLx800 micro plate reader (Bio-Tek Instruments, Winooski, Vt.), or by flow cytometry (FACScan, Becton Dickinson, Franklin Lakes, N.J.) at 488 nm excitation and 530 nm emission. Each data point represents the mean fluorescence from three or more independent experiments, and is expressed ±s.e.m.

[3] = system: superoxide anions (O2.^−); assay: Cytochrome c assay for detecting O2.− generation; type: biochemical, ragweed (Ambrosia artemisiifolia); conditions: SOD 50 U/ml added to pRWE^NOX+NADPH+Cyt c
Description: Cytochrome c Assay for Detecting O2.^− Generation. The method described by Messner and Imaly was used. The assay was carried out in PBS with 10 μg pRWE and 10 μM oxidized cytochrome c (Sigma-Aldrich) in the reaction mixture. The reactions were started by adding 100 μM NADPH, and the increase in A550 nm was recorded for 5 min. Saturating amounts of SOD 9(50 U/ml, Sigma-Aldrich) were used in a reference reaction to determine any such O2.^− independent reduction of cytochrome c by the sample.

Compound | NBT reducing activity of pRWE^NOX in presence of the agent (NADPH oxidase; pRWE^NOX, FIG. 1A) | effect on extract-induced elevation in ROS levels [2] | other results
CC(=O)N[C@@H](CS)C(=O)O [N-acetyl-L-cysteine] | – | – | effect on RWE-induced increase in intracellular ROS levels [1]: inhibited; effect on RWE-induced increase in intracellular ROS levels ([1]; listed as NAC): inhibits
[N-]=[N+]=[N-].[Na+] [azide, sodium azide] | – | – | NBT reducing activity of pRWE^NOX in presence of the agent (NADPH oxidase): resistant
c1ccc2c(c1)[I+]c1ccccc1-2 [diphenyleneiodonium] | inhibited | inhibited | –
CCN(CC)CCCC(C)Nc1c2ccc(Cl)cc2nc2ccc(OC)cc12 (centres unmarked) [quinacrine] | inhibited | inhibited | –
superoxide dismutase | – | – | effect on the pRWE^NOX-induced increase in absorbance at 550 nm [3]: abrogated
